Laboratory results as given in article PMC8956058, “Cembranolides and Related Constituents from the Soft Coral Sarcophyton cinereum” (Molecules, 2022).
Where two headings read alike, the source gives them in different places.

What was measured:
Format in all cases: cell-based
[1] = tested on: CCD966SK cells (human skin fibroblast); experiment: Alamar Blue cytotoxicity / anti-proliferation assay, CCD966SK; conditions: triplicate, read-out: Anti-proliferation activities (IC50) CCD966SK
Procedure: (§1) The assay was implemented according to the published protocols. In brief, the Alamar Blue assay was performed for compounds 2–19 by treating them with P388, DLD-1, HuCC-T1, and CCD966SK cancer cells, which were commercially available from the American Type Culture Collection (ATCC). The test was performed in triplicate, and doxorubicin was used as a positive control.

[2] = tested on: DLD-1 cells (human colorectal adenocarcinoma); experiment: Alamar Blue cytotoxicity / anti-proliferation assay, DLD-1; conditions: triplicate, read-out: Anti-proliferation activities (IC50) DLD-1
Procedure: as §1

[3] = tested on: P388 cells (mouse lymphoma); experiment: Alamar Blue cytotoxicity / anti-proliferation assay, P388; conditions: triplicate, read-out: Anti-proliferation activities (IC50) P388
Procedure: as §1

[4] = tested on: HuCCT-1 cells (human intrahepatic cholangiocarcinoma); experiment: Alamar Blue cytotoxicity / anti-proliferation assay, HuCCT-1; conditions: triplicate, read-out: Anti-proliferation activities (IC50) HuCCT-1
Procedure: as §1

[5] = Homo sapiens, DLD-1, DLD-1 human colorectal adenocarcinoma
[6] = Mus musculus, P388, P388 mouse lymphoma
[7] = Homo sapiens, HuCCT-1, HuCCT-1 human intrahepatic cholangiocarcinoma
[8] = DLD-1 human colorectal adenocarcinoma
[9] = HuCCT-1 human intrahepatic cholangiocarcinoma

| Compound | IC50 ([1]; Homo sapiens, Skin fibroblast) | IC50 [2, 5] | IC50 [3, 6] | IC50 [4, 7] | IC50 [1] | IC50 [2, 8] | IC50 ([3]; P388 mouse lymphoma) | IC50 [4, 9] |
| --- | --- | --- | --- | --- | --- | --- | --- | --- |
| CC(C)C1(O)C=CC(C)(O)CCC(O)C2(C)CCC=C(CC1)C(=O)O2 (stereo not drawn) [Compound 2, Cinerenolide B] | > 30 µM | > 30 µM | > 30 µM | > 30 µM |  |  |  |  |
| CC(C)C1(O)C=CC(C)(O)CCC(O)C2(C)CCC=C(CC1)C(=O)O2 (stereo not drawn) [Compound 3, Cinerenolide C] |  |  |  |  | > 30 µM | > 30 µM | > 30 µM | > 30 µM |
| C=C1CC[C@H]2O[C@]2(C)CCC2=C(C)CO[C@H]2/C=C(\C)CC[C@@H]1OC(C)=O [Compound 4, sarcophytonoxide E] | > 30 µM | > 30 µM | > 30 µM | > 30 µM |  |  |  |  |
| CC1=C2CC[C@@]3(C)O[C@@H]3CC[C@@](C)(OO)/C=C/C/C(C)=C/[C@@H]2OC1=O [Compound 5, sarcomililatin A] | > 30 µM | > 30 µM | 15.2 ± 3.2 µM | > 30 µM |  |  |  |  |
| C=C1CC[C@H]2O[C@]2(C)CCC2=C(C)C(=O)O[C@H]2/C=C(\C)CC[C@H]1OO [Compound 6, sarcomililatin B] | > 30 µM | > 30 µM | 11.8 ± 4.6 µM | > 30 µM |  |  |  |  |
| CC1=CCCC2(C)OC2CCC(C)=CC=C(C(C)(C)O)CC1 (stereo not drawn) [Compound 7, 2-[(E,E,E)-7′,8′-epoxy-4′,8′,12′-trimethylcyclotetradeca-1′,3′,11′-trienyl]propan-2-ol] | > 30 µM | > 30 µM | > 30 µM | > 30 µM |  |  |  |  |
| C/C1=C\[C@H](O)CC2=C[C@@H](OC2=O)[C@H](C(C)C)CC/C(C)=C/CC1 [Compound 8, sarcophytonolide F] | > 30 µM | > 30 µM | > 30 µM | > 30 µM |  |  |  |  |
| CC1=C2CC[C@@]3(C)O[C@@H]3CC/C(C)=C/CC[C@@](C)(O)/C=C/2OC1=O [Compound 9, cherbonolide L] | > 30 µM | > 30 µM | > 30 µM | > 30 µM |  |  |  |  |
| CC1=C2CC[C@@]3(C)O[C@@H]3CC/C(C)=C/CC/C(C)=C/[C@@H]2OC1=O [Compound 10, (+)-(2S)-isosarcophine] | > 30 µM | > 30 µM | > 30 µM | > 30 µM |  |  |  |  |
| CC1=C2CC[C@@]3(C)O[C@@H]3CC/C(C)=C/CC/C(C)=C/[C@H]2OC1=O [Compound 11, (–)-(2R)-isosarcophine] | > 30 µM | > 30 µM | > 30 µM | > 30 µM |  |  |  |  |
| CC(=O)O[C@H]1/C=C(\C)CC[C@H]2O[C@]2(C)CCC2=C(C)CO[C@H]2/C=C(\C)C1 [Compound 12, sarcophytonoxide A] | > 30 µM | > 30 µM | > 30 µM | > 30 µM |  |  |  |  |
| CC(C)/C1=C/[C@@H](O)[C@]2(C)O[C@@H]2C[C@@H](O)[C@@]2(C)CCC=C(CC1)C(=O)O2 [Compound 13, sartrolide C] | > 30 µM | > 30 µM | > 30 µM | > 30 µM |  |  |  |  |
| COC(=O)/C1=C\C=C(\C(C)C)CCC2=CCC[C@](C)(OC2=O)C(=O)CC1 [Compound 14, ketoemblide] | > 30 µM | > 30 µM | > 30 µM | > 30 µM |  |  |  |  |
| CC(=O)OC1CC(C)=CCCC(C)=CC(=O)CC23C(=O)OC(C1C(C)C)C2CC(C)=C1CCC2=CCCC(C)(OC2=O)C(O)CCC(C)=CC13 (stereo not drawn) [Compound 16, glaucumolide A] | 21.3 ± 5.8 µM |  |  |  |  | > 30 µM | 16.7 ± 5.8 µM | 19.1 ± 6.4 µM |
| CC(=O)OC1CC(C)=CCCC(C)=CC(=O)CC23C(=O)OC(C1C(C)C)C2CC(C)=C1CCC2=CCCC(C)(OC2=O)C(O)CCC(C)=CC13 (stereo not drawn) [Compound 17, glaucumolide B] |  |  |  |  | 26.1 ± 10.3 µM | > 30 µM | 22.8 ± 9.7 µM | > 30 µM |
| CC(=O)OC1CC(C)=CCCC(C)=CC(=O)CC23C(=O)OC(C1C(C)C)C2CC(C)=C1CCC2=CCCC(C)(OC2=O)C(O)CCC(C)=CC13 (stereo not drawn) [Compound 18, bistrochelide A] |  |  |  |  | 18.8 ± 6.9 µM | 9.9 ± 1 µM | 10.6 ± 1.9 µM | 2 ± 0.1 µM |
| COc1cccc2c1C(=O)c1c(O)c3c(c(O)c1C2=O)C[C@@](O)(C(=O)CO)C[C@@H]3O[C@H]1C[C@H](N)[C@H](O)[C@H](C)O1 [Doxorubicin, doxorubicin, reference compound] | 2.9 ± 0.4 µM | 4.1 ± 0.7 µM | 0.69 ± 0.01 µM | 1.9 ± 0.1 µM |  |  |  |  |
| isosarcophytonolide D [Compound 15] |  |  |  |  | 27.6 ± 7.8 µM | > 30 µM | > 30 µM | > 30 µM |
